Experimental data published in PMC3743865, “The FLT3 Inhibitor Quizartinib Inhibits ABCG2 at Pharmacologically Relevant Concentrations, with Implications for Both Chemosensitization and Adverse Drug Interactions” (PLoS ONE, 2013).

Tests used:
ABCG2 = biological target: T1, ABCG2 (Homo sapiens, UniProt Q9UNQ0); experiment: biochemical
T1 sequence (Q9UNQ0 1-655): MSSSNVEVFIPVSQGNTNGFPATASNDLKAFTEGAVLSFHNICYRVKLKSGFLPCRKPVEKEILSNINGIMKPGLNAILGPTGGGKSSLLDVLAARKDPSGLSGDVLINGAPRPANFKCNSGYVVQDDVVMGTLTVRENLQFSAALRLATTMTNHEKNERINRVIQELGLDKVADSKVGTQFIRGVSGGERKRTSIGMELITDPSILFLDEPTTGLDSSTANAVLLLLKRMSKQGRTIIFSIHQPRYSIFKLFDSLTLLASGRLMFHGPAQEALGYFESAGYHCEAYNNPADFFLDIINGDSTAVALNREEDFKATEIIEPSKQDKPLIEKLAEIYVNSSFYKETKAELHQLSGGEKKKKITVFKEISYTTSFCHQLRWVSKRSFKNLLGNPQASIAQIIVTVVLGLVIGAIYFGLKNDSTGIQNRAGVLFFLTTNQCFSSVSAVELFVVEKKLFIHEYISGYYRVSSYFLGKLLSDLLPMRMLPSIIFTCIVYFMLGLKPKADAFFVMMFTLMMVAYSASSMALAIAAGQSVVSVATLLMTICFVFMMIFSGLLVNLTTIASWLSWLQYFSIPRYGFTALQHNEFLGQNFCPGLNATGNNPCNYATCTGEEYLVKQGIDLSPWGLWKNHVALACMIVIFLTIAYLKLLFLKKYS

ABCB1 = ABCB1 (Homo sapiens, UniProt P08183); experiment: biochemical
ABCB1, sequence (P08183 whole entry): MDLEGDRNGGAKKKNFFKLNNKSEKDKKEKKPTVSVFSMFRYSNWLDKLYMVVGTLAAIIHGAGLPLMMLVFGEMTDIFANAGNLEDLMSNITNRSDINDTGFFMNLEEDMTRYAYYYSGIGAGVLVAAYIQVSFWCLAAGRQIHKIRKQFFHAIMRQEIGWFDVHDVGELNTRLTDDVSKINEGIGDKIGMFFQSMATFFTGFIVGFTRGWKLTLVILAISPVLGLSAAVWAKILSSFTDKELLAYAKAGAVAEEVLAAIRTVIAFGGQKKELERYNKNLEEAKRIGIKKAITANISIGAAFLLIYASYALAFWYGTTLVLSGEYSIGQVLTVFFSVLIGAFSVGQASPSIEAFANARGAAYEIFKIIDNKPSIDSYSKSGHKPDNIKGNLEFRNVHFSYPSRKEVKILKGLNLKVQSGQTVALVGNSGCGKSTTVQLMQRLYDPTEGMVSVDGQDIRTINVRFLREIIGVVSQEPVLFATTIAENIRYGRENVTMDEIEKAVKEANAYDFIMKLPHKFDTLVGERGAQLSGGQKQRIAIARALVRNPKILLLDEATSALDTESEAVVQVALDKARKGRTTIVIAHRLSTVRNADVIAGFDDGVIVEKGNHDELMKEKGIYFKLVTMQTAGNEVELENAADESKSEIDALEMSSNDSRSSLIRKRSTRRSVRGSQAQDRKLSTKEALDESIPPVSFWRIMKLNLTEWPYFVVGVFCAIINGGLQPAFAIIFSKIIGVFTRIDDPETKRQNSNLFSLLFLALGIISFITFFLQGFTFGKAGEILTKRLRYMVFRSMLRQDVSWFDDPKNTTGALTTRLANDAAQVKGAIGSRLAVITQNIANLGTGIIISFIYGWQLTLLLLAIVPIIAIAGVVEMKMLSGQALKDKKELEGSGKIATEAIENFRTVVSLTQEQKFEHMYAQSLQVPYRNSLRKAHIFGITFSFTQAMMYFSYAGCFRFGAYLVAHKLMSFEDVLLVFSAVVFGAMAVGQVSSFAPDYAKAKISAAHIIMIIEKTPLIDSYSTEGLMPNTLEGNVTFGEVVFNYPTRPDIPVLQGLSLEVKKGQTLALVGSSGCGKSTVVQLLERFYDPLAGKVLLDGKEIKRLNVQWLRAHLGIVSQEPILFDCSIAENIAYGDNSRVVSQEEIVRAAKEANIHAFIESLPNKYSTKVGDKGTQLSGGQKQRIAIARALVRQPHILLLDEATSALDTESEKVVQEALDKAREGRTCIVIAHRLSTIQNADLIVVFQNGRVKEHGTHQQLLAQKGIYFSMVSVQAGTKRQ

IC50 (ABCG2): 0.07 µM
IC50 (ABCB1): 3.3 µM
SMILES: CC(C)(C)c1cc(NC(=O)Nc2ccc(-c3cn4c(n3)sc3cc(OCCN5CCOCC5)ccc34)cc2)no1 [quizartinib]
